Source: patent US6737383B1, “Herbicidal oxadiazolidines” (priority 1999, dated 2004)

Assays:
sugar beet = assay: Test B pre/postemergence sugar beet; type: in vivo, Beta vulgaris
Method in brief: (§1)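 Test chemicals in a non-phytotoxic solvent mixture with surfactant were sprayed preemergence onto planted seeds and postemergence onto plants 2 to 18 cm tall (1- to 4-leaf stage). After twelve to sixteen days in a greenhouse, injury was visually rated against untreated controls from 0 (no effect) to 10 (complete control).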

rape = assay: Test B pre/postemergence rape; type: in vivo, Brassica napus
Method in brief: as §1

smallflower flatsedge = assay: Test B flood test smallflower flatsedge; type: in vivo, Cyperus difformis
Method in brief: (§2)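 Flood test on plants grown to the 2-leaf stage; treated plants kept in greenhouse twelve to sixteen days, then visually rated against controls on a 0 (no effect) to 10 (complete control) scale.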

wheat = assay: Test B pre/postemergence wheat; type: in vivo, Triticum aestivum
Method in brief: as §1

morningglory = assay: Test B pre/postemergence morningglory; type: in vivo, Ipomoea hederacea
Method in brief: as §1

velvetleaf = assay: Test B pre/postemergence velvetleaf; type: in vivo, Abutilon theophrasti
Method in brief: as §1

soybean = assay: Test B pre/postemergence soybean; type: in vivo, Glycine max
Method in brief: as §1

blackgrass = assay: Test B pre/postemergence blackgrass; type: in vivo, Alopecurus myosuroides
Method in brief: as §1

wild oat = assay: Test B pre/postemergence wild oat; type: in vivo, Avena fatua
Method in brief: as §1

duck salad = assay: Test B flood test duck salad; type: in vivo, Heteranthera limosa
Method in brief: as §2

crabgrass = assay: Test B pre/postemergence crabgrass; type: in vivo, Digitaria sanguinalis
Method in brief: as §1

purple nutsedge = assay: Test B pre/postemergence purple nutsedge; type: in vivo, Cyperus rotundus
Method in brief: as §1

giant foxtail = assay: Test B pre/postemergence giant foxtail; type: in vivo, Setaria faberii
Method in brief: as §1

surinam grass = assay: Test B pre/postemergence surinam grass; type: in vivo, Brachiaria decumbens
Method in brief: as §1

corn = assay: Test B pre/postemergence corn; type: in vivo, Zea mays
Method in brief: as §1

cocklebur = assay: Test B pre/postemergence cocklebur; type: in vivo, Xanthium strumarium
Method in brief: as §1

[1] = Postemergence, Rate 62 g/ha, scale 0 to 10, 0 is no effect, 10 is complete control
[2] = Postemergence, Rate 125 g/ha, scale of 0 to 10 where 0 is no effect and 10 is complete control
[3] = Postemergence, Rate 250 g/ha, scale of 0 to 10, 0 is no effect, 10 is complete control
[4] = Preemergence, Rate 62 g/ha, scale 0 to 10 (0 no effect, 10 complete control)
[5] = Preemergence, Rate 125 g/ha, scale of 0 to 10 where 0 is no effect and 10 is complete control
[6] = Preemergence, Rate 250 g/ha, scale 0 to 10 (0 no effect, 10 complete control)
[7] = Preemergence, Rate 500 g/ha, scale of 0 to 10 where 0 is no effect and 10 is complete control
[8] = Postemergence, Rate 500 g/ha, scale of 0 to 10 where 0 is no effect and 10 is complete control
[9] = Rate 62 g/ha, flood test species, Pre-emergence, visual evaluation after twelve to sixteen days
[10] = Rate 125 g/ha, under heading Pre-emergence, flood test species, visual evaluation after twelve to sixteen days
[11] = Rate 250 g/ha, Pre-emergence (flood test species), scale 0 to 10, 0 is no effect, 10 is complete control
[12] = Rate 500 g/ha, Pre-emergence section of Table B, 0 to 10 scale (0 no effect, 10 complete control)

For `CCOC(Cn1c(=O)on(C(=O)N(c2ccc(Cl)cc2)C(C)C)c1=O)OCC` [Compound 633], the “Plant response rating, Sugarbeets” value (sugar beet; [1]) was 0, the “Plant response rating, Sugarbeets” value (sugar beet; [2]) was 0 and the “Sugarbeets plant response rating” value (sugar beet; [3]) was 0. For the same compound, the “Sugarbeets plant response rating” value (sugar beet; [4]) was 0, the “Sugarbeets plant response rating” value (sugar beet; [5]) was 0 and the “Plant response rating, Sugarbeets” value (sugar beet; [6]) was 0. The “Plant response rating, Sugarbeets” value (sugar beet; [7]) was 0, the “Plant response rating, Rape” value (rape; [1]) was 0 and the “Plant response rating, Rape” value (rape; [2]) was 0. The “Rape plant response rating” value (rape; [3]) was 0, the “Plant response rating, Rape” value (rape; [8]) was 0 and the “Rape plant response rating” value (rape; [4]) was 0. The “Rape plant response rating” value (rape; [5]) was 0, the “Plant response rating, Rape” value (rape; [6]) was 1 and the “Plant response rating, Rape” value (rape; [7]) was 4. The “Plant response rating, S. Flatsedge (0 to 10 scale, 0 is no effect, 10 is complete control)” value (smallflower flatsedge; [9]) was 0, the “S. Flatsedge plant response rating (0 to 10 scale, 0 is no effect, 10 is complete control)” value (smallflower flatsedge; [10]) was 0 and the “S. Flatsedge plant response rating” value (smallflower flatsedge; [11]) was 0. The “S. Flatsedge plant response rating” value (smallflower flatsedge; [12]) was 0, the “Plant response rating, Wheat” value (wheat; [1]) was 0 and the “Plant response rating, Wheat” value (wheat; [2]) was 0. For the same compound, the “Wheat plant response rating” value (wheat; [3]) was 0, the “Wheat plant response rating” value (wheat; [4]) was 0 and the “Wheat plant response rating” value (wheat; [5]) was 0. For the same compound, the “Plant response rating, Wheat” value (wheat; [6]) was 0, the “Plant response rating, Wheat” value (wheat; [7]) was 0 and the “Plant response rating, Morningglory” value (morningglory; [1]) was 1. For the same compound, the “Plant response rating, Morningglory” value (morningglory; [2]) was 2, the “Morningglory plant response rating” value (morningglory; [3]) was 5 and the “Plant response rating, Morningglory” value (morningglory; [8]) was 5. The “Morningglory plant response rating” value (morningglory; [4]) was 0, the “Morningglory plant response rating” value (morningglory; [5]) was 0 and the “Plant response rating, Morningglory” value (morningglory; [6]) was 0. For the same compound, the “Plant response rating, Morningglory” value (morningglory; [7]) was 0, the “Plant response rating, Velvetleaf” value (velvetleaf; [1]) was 0 and the “Plant response rating, Velvetleaf” value (velvetleaf; [2]) was 0. For the same compound, the “Velvetleaf plant response rating” value (velvetleaf; [3]) was 0, the “Velvetleaf plant response rating” value (velvetleaf; [4]) was 0 and the “Velvetleaf plant response rating” value (velvetleaf; [5]) was 0. For the same compound, the “Plant response rating, Velvetleaf” value (velvetleaf; [6]) was 0, the “Plant response rating, Velvetleaf” value (velvetleaf; [7]) was 0 and the “Plant response rating, Soybean” value (soybean; [1]) was 2. The “Plant response rating, Soybean” value (soybean; [2]) was 2, the “Soybean plant response rating” value (soybean; [3]) was 2 and the “Soybean plant response rating” value (soybean; [4]) was 0. For the same compound, the “Soybean plant response rating” value (soybean; [5]) was 0, the “Plant response rating, Soybean” value (soybean; [6]) was 0 and the “Plant response rating, Soybean” value (soybean; [7]) was 0. The “Plant response rating, Blackgrass” value (blackgrass; [1]) was 0, the “Plant response rating, Blackgrass” value (blackgrass; [2]) was 0 and the “Blackgrass plant response rating” value (blackgrass; [3]) was 4. The “Plant response rating, Blackgrass” value (blackgrass; [8]) was 8, the “Blackgrass plant response rating” value (blackgrass; [4]) was 0 and the “Blackgrass plant response rating” value (blackgrass; [5]) was 3. For the same compound, the “Plant response rating, Blackgrass” value (blackgrass; [6]) was 5, the “Plant response rating, Blackgrass” value (blackgrass; [7]) was 7 and the “Plant response rating, Wild oats” value (wild oat; [1]) was 0. The “Plant response rating, Wild oats” value (wild oat; [2]) was 0, the “Wild oats plant response rating” value (wild oat; [3]) was 0 and the “Wild oats plant response rating” value (wild oat; [4]) was 0. The “Wild oats plant response rating” value (wild oat; [5]) was 2, the “Plant response rating, Wild oats” value (wild oat; [6]) was 3 and the “Plant response rating, Wild oats” value (wild oat; [7]) was 5. The “Plant response rating, Ducksalad (0 to 10 scale, 0 is no effect, 10 is complete control)” value (duck salad; [9]) was 0, the “Ducksalad plant response rating (0 to 10 scale, 0 is no effect, 10 is complete control)” value (duck salad; [10]) was 0 and the “Ducksalad plant response rating” value (duck salad; [11]) was 0. For the same compound, the “Ducksalad plant response rating” value (duck salad; [12]) was 0, the “Plant response rating, Crabgrass” value (crabgrass; [1]) was 0 and the “Plant response rating, Crabgrass” value (crabgrass; [2]) was 0. The “Crabgrass plant response rating” value (crabgrass; [3]) was 3, the “Plant response rating, Crabgrass” value (crabgrass; [8]) was 9 and the “Crabgrass plant response rating” value (crabgrass; [4]) was 5. The “Crabgrass plant response rating” value (crabgrass; [5]) was 8, the “Plant response rating, Crabgrass” value (crabgrass; [6]) was 9 and the “Plant response rating, Crabgrass” value (crabgrass; [7]) was 9. The “Plant response rating, Nutsedge” value (purple nutsedge; [1]) was 0, the “Plant response rating, Nutsedge” value (purple nutsedge; [2]) was 0 and the “Nutsedge plant response rating” value (purple nutsedge; [3]) was 0. The “Plant response rating, Nutsedge” value (purple nutsedge; [8]) was 0, the “Nutsedge plant response rating” value (purple nutsedge; [4]) was 0 and the “Nutsedge plant response rating” value (purple nutsedge; [5]) was 0. The “Plant response rating, Nutsedge” value (purple nutsedge; [6]) was 0, the “Plant response rating, Nutsedge” value (purple nutsedge; [7]) was 0 and the “Plant response rating, Giant foxtail” value (giant foxtail; [1]) was 0. For the same compound, the “Plant response rating, Giant foxtail” value (giant foxtail; [2]) was 0, the “Giant foxtail plant response rating” value (giant foxtail; [3]) was 3 and the “Plant response rating, Giant foxtail” value (giant foxtail; [8]) was 8. For the same compound, the “Giant foxtail plant response rating” value (giant foxtail; [4]) was 6, the “Giant foxtail plant response rating” value (giant foxtail; [5]) was 9 and the “Plant response rating, Giant foxtail” value (giant foxtail; [6]) was 10. For the same compound, the “Plant response rating, Giant foxtail” value (giant foxtail; [7]) was 10, the “Plant response rating, B. signalgrass” value (surinam grass; [1]) was 0 and the “Plant response rating, B. signalgrass” value (surinam grass; [2]) was 0. For the same compound, the “B. signalgrass plant response rating” value (surinam grass; [3]) was 0, the “Plant response rating, B. signalgrass” value (surinam grass; [8]) was 5 and the “B. signalgrass plant response rating” value (surinam grass; [4]) was 0. The “B. signalgrass plant response rating” value (surinam grass; [5]) was 3, the “Plant response rating, B. signalgrass” value (surinam grass; [6]) was 6 and the “Plant response rating, B. signalgrass” value (surinam grass; [7]) was 6. For the same compound, the “Plant response rating, Corn” value (corn; [1]) was 0, the “Plant response rating, Corn” value (corn; [2]) was 0 and the “Corn plant response rating” value (corn; [3]) was 0. The “Plant response rating, Corn” value (corn; [8]) was 0, the “Corn plant response rating” value (corn; [4]) was 0 and the “Corn plant response rating” value (corn; [5]) was 0. The “Plant response rating, Corn” value (corn; [6]) was 0, the “Plant response rating, Corn” value (corn; [7]) was 2 and the “Plant response rating, Cocklebur” value (cocklebur; [1]) was 0. For the same compound, the “Plant response rating, Cocklebur” value (cocklebur; [2]) was 0, the “Cocklebur plant response rating” value (cocklebur; [3]) was 0 and the “Plant response rating, Cocklebur” value (cocklebur; [8]) was 0. The “Cocklebur plant response rating” value (cocklebur; [4]) was 0, the “Cocklebur plant response rating” value (cocklebur; [5]) was 0 and the “Plant response rating, Cocklebur” value (cocklebur; [6]) was 0. For the same compound, the “Plant response rating, Cocklebur” value (cocklebur; [7]) was 0.
